The test system of experiment [1] is lung cancer cell line A549. Also on record: method as in Lin et al., 2017. As to conditions: in vitro, dose-dependent; ref Lin et al., 2017; cited from earlier work.
For experiment [2], the system named is TLR7-mediated NF-κB signaling pathway (IKKα/β, IκBα, p65). Nature of the experiment: Western blot, NF-κB pathway in R837-stimulated RAW264.7 cells. It is filed as cell-based, mouse. As to conditions: R837-stimulated RAW264.7. Here is the method:
RAW264.7 cells (2×10^6 cells/well) were plated into 6-well plates and then incubated at 37°C in 5% CO2 for 24 h. After incubated with various concentrations of EFL2 (1, 5 and 10 µM) for 1 h, cells were then stimulated by R837 (20 μg/ml) for 30 min. Cell lysates were prepared by direct lysis in 20 µL IP buffer (Beyotime Biotechnology, Shanghai, China). After obtaining the whole cell extracts, the cytosolic and nuclear were seperated using Nuclear and Cytoplasmic Protein Extraction Kit (Beyotime Biotechnology, Shanghai, China). BCA Protein Assay Kit (Beyotime Biotechnology, Nantong, China) was applied to determine the protein concentrations. The bands corresponding to p- IKKα/β, IKKα/β, p-IκBα, IκBα, p-p65, p65, p-IRAK4, IRAK4, p-IKKβ, IKKβ, p-IRF5, IRF5, β-actin and Lamin B were visualized using a Western Blot Detection Chemiluminescence Kit (Merck). Protein extracted from the total lysates/cytoplasm and nucleus was quantified in relation to β-actin and Lamin B bands, respectively.
The antibodies used in the experiments were as follows: rabbit anti-mouse IKKα/β polyclonal antibody (1:1,000, Abways, China), rabbit anti-mouse IκBα polyclonal antibody (1:1,000, Abgent, China), rabbit anti-mouse p65 polyclonal antibody (1:1,000, Abgent, China), rabbit anti-mouse phosphorylated IKKα (Ser176)/β (Ser177) (1:1,000, Abways, China), rabbit anti-mouse phosphorylated IκBα (1:1,000, Abcam, United States), rabbit anti-mouse phosphorylated p65 (1:1,000, Abcam, United States), rabbit anti-mouse IRAK4 polyclonal antibody (1:1,000, Proteintech, United States), rabbit anti-mouse phosphorylated IRAK4 (Thr345/Ser346) (1:1,000, Affinity, United States), rabbit anti-mouse IKKβ polyclonal antibody (1:1,000, Abbkine, United States), rabbit anti-mouse phosphorylated IKKβ (Ser177) (1:1,000, Abways, China), rabbit anti-mouse IRF5 polyclonal antibody (1:1,000, Immunoway, United States), rabbit anti-mouse phosphorylated IRF5 (Ser437) (1:1,000, Affinity, United States), anti-mouse actin monoclonal antibody (1:20,000, Transgen, China) and rabbit anti-mouse LaminB monoclonal antibody (1:5,000, Abways, China).

Here are results for 1 compound from publication PMC8691750, “Euphorbia Factor L2 ameliorates the Progression of K/BxN Serum-Induced Arthritis by Blocking TLR7 Mediated IRAK4/IKKβ/IRF5 and NF-kB Signaling Pathways” (Frontiers in Pharmacology, 2021).

Each structure is given as a SMILES string.

As for `C=C1C(OC(=O)c2ccccc2)CC2C(C=C(C)C(=O)C3(OC(C)=O)CC(C)C(OC(=O)c4ccccc4)C3C1OC(C)=O)C2(C)C` (centres unmarked) [EFL2, Euphorbia factor L2], the “apoptosis of A549 cells” value in experiment [1] is reported as “induced the apoptosis”. Besides, in experiment [2] (EFL2 1, 5, 10 μM), the IKKα/β phosphorylation result was “effectively inhibited”, the IκB-α phosphorylation entry was “effectively inhibited” and the p65 phosphorylation result is recorded as “effectively inhibited”. In experiment [2] (EFL2, also immunofluorescence), the “NF-κB subunit p65 translocation activity” value is given as “significantly suppressed”.
